Measured values reported in patent US6472348B1, “Pyridone derivatives and herbicides” (Kumiai Chemical Industry Co., Ltd., priority 1996, dated 2002).

The compounds below were run on barnyardgrass (Ec) (assay: Test Example 3: herbicidal effects by upland field foliage treatment). Conditions: 100 g active ingredient per 10 ares, evaluated 14th day after treatment.
Assay type: in vivo
Design: scale not given here
Summary of the method: (§1)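 Two-week-old greenhouse seedlings, raised in sand-filled pots (120 cm^2) with seed covered by soil, receive a foliar application. Effects are then evaluated by standard grades 14 days later, plants remaining in the greenhouse meanwhile.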
`CCCON=Cc1cc(-c2ccc(C(F)(F)F)n(C)c2=O)c(F)cc1Cl` [Compound 1-188] was tested, and the “Herbicidal effects Ec” value was 5.

What follows are compounds tested on slender amaranth (Am) in the same assay as above. Conditions: 100 g active ingredient per 10 ares, evaluated 14th day after treatment.
Assay type: in vivo
Design: scale not given here
Summary of the method: as §1
`CCCON=Cc1cc(-c2ccc(C(F)(F)F)n(C)c2=O)c(F)cc1Cl` [Compound 1-188] was tested, and the “Herbicidal effects Am” value was 5.

These compounds were tested on common lambsquarters (Ch) in the same assay as above. Conditions: 100 g active ingredient per 10 ares, evaluated 14th day after treatment.
Assay type: in vivo
Design: scale not given here
Summary of the method: as §1
For `CCCON=Cc1cc(-c2ccc(C(F)(F)F)n(C)c2=O)c(F)cc1Cl` [Compound 1-188], the “Herbicidal effects Ch” value was 5.

These compounds were tested on rice flatsedge (Ci) in the same assay as above. Conditions: 100 g active ingredient per 10 ares, evaluated 14th day after treatment.
Assay type: in vivo
Design: scale not given here
Summary of the method: as §1
For `CCCON=Cc1cc(-c2ccc(C(F)(F)F)n(C)c2=O)c(F)cc1Cl` [Compound 1-188], the “Herbicidal effects Ci” value was 5.

What follows are compounds tested on Diaitaria ciliaris (Di) in the same assay as above. Conditions: 100 g active ingredient per 10 ares, evaluated 14th day after treatment.
Assay type: in vivo
Design: scale not given here
Summary of the method: as §1
With `CCCON=Cc1cc(-c2ccc(C(F)(F)F)n(C)c2=O)c(F)cc1Cl` [Compound 1-188] the “Herbicidal effects Di” value was 5.

The compounds below were run on pale smartweed (Po) in the same assay as above. Conditions: 100 g active ingredient per 10 ares, evaluated 14th day after treatment.
Assay type: in vivo
Design: scale not given here
Summary of the method: as §1
For `CCCON=Cc1cc(-c2ccc(C(F)(F)F)n(C)c2=O)c(F)cc1Cl` [Compound 1-188], the “Herbicidal effects Po” value was 5.

What follows are compounds tested on soybean (Gl) (assay: Test Example 6: crop plant selectivity by upland field soil treatment (soybean), phytotoxicity). Conditions: dose 6.3 g ai/10a, 21st day after application.
Assay type: in vivo
Design: scale not given here
Summary of the method: (§2)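 Greenhouse pot test with soil-applied compound after sowing soybean and weeds in sand; effects graded on day 21 after application.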
With `CCCON=Cc1cc(-c2ccc(C(F)(F)F)n(C)c2=O)c(F)cc1Cl` [Compound 1-188] the “Phytotoxicity Gl” value was 1.

The compounds below were run on slender amaranth (Am) (assay: Test Example 6: crop plant selectivity by upland field soil treatment (soybean), herbicidal effects). Conditions: dose 6.3 g ai/10a, 21st day after application.
Assay type: in vivo
Design: scale not given here
Summary of the method: as §2
For `CCCON=Cc1cc(-c2ccc(C(F)(F)F)n(C)c2=O)c(F)cc1Cl` [Compound 1-188], the “Herbicidal effects Am” value was 5.

These compounds were tested on common lambsquarters (Ch) in the same assay as above. Conditions: dose 6.3 g ai/10a, 21st day after application.
Assay type: in vivo
Design: scale not given here
Summary of the method: as §2
With `CCCON=Cc1cc(-c2ccc(C(F)(F)F)n(C)c2=O)c(F)cc1Cl` [Compound 1-188] the “Herbicidal effects Ch” value was 5.

The compounds below were run on green foxtail (Se) in the same assay as above. Conditions: dose 6.3 g ai/10a, 21st day after application.
Assay type: in vivo
Design: scale not given here
Summary of the method: as §2
For `CCCON=Cc1cc(-c2ccc(C(F)(F)F)n(C)c2=O)c(F)cc1Cl` [Compound 1-188], the “Herbicidal effects Se” value was 5.

The compounds below were run on China jute (Ab) in the same assay as above. Conditions: dose 6.3 g ai/10a, 21st day after application.
Assay type: in vivo
Design: scale not given here
Summary of the method: as §2
For `CCCON=Cc1cc(-c2ccc(C(F)(F)F)n(C)c2=O)c(F)cc1Cl` [Compound 1-188], the “Herbicidal effects Ab” value was 5.

These compounds were tested on pale smartweed (Po) in the same assay as above. Conditions: dose 6.3 g ai/10a, 21st day after application.
Assay type: in vivo
Design: scale not given here
Summary of the method: as §2
For `CCCON=Cc1cc(-c2ccc(C(F)(F)F)n(C)c2=O)c(F)cc1Cl` [Compound 1-188], the “Herbicidal effects Po” value was 5.

These compounds were tested on slender amaranth (Am) (assay: Test Example 5: crop plant selectivity by upland field soil treatment (wheat), herbicidal effects). Conditions: dose 6.3 g ai/10a, 21st day after application.
Assay type: in vivo
Design: scale not given here
Procedure: (§3) (Test on Crop Plant Selectivity by Upland Field Soil Treatment)
(§4) In a plastic pot (surface area: 600 cm^2) filled with sand, wheat (Tr), Diaitaria ciliaris (Di), green foxtail (Se), pale smartweed (Po), slender amaranth (Am), common lambsquarters (Ch) and China jute (Ab) were sown and covered with soil. […] The plants were then cultured in a green house, and the evaluation of the herbicidal effects and phytotoxicity was conducted on the 21st day after the application in accordance with the standards as identified in Table 47. Symbol—represents “not tested”.
In the case of `CCCON=Cc1cc(-c2ccc(C(F)(F)F)n(C)c2=O)c(F)cc1Cl` [Compound 1-188], the “Herbicidal effects Am” value is reported as 5.

What follows are compounds tested on common lambsquarters (Ch) in the same assay as above. Conditions: dose 6.3 g ai/10a, 21st day after application.
Assay type: in vivo
Design: scale not given here
Procedure: as §3, §4
With `CCCON=Cc1cc(-c2ccc(C(F)(F)F)n(C)c2=O)c(F)cc1Cl` [Compound 1-188] the “Herbicidal effects Ch” value was 5.

What follows are compounds tested on green foxtail (Se) in the same assay as above. Conditions: dose 6.3 g ai/10a, 21st day after application.
Assay type: in vivo
Design: scale not given here
Procedure: as §3, §4
For `CCCON=Cc1cc(-c2ccc(C(F)(F)F)n(C)c2=O)c(F)cc1Cl` [Compound 1-188], the “Herbicidal effects Se” value was 5.

Each compound was assayed on China jute (Ab) in the same assay as above. Conditions: dose 6.3 g ai/10a, 21st day after application.
Assay type: in vivo
Design: scale not given here
Procedure: as §3, §4
In the case of `CCCON=Cc1cc(-c2ccc(C(F)(F)F)n(C)c2=O)c(F)cc1Cl` [Compound 1-188], the “Herbicidal effects Ab” value is reported as 5.

What follows are compounds tested on pale smartweed (Po) in the same assay as above. Conditions: dose 6.3 g ai/10a, 21st day after application.
Assay type: in vivo
Design: scale not given here
Procedure: as §3, §4
For `CCCON=Cc1cc(-c2ccc(C(F)(F)F)n(C)c2=O)c(F)cc1Cl` [Compound 1-188], the “Herbicidal effects Po” value was 5.

The compounds below were run on slender amaranth (Am) (assay: Test Example 7: crop plant selectivity by upland field soil treatment (corn), herbicidal effects). Conditions: dose 6.3 g ai/10a, 21st day after application.
Assay type: in vivo
Design: scale not given here
Procedure: as §3
(§5) In a plastic pot (surface area: 600 cm^2) filled with sand, corn (Ze), green foxtail (Se), pale smartweed (Po), slender amaranth (Am), common lambsquarters (Ch) and China jute (Ab) were sown and covered with soil. […] The plants were then cultured in a green house, and the evaluation of the herbicidal effects and phytotoxicity was conducted on the 21st day after the application in accordance with the standards as identified in Table 47.
`CCCON=Cc1cc(-c2ccc(C(F)(F)F)n(C)c2=O)c(F)cc1Cl` [Compound 1-188] was tested, and the “Herbicidal effects Am” value was 5.

What follows are compounds tested on common lambsquarters (Ch) in the same assay as above. Conditions: dose 6.3 g ai/10a, 21st day after application.
Assay type: in vivo
Design: scale not given here
Procedure: as §3, §5
`CCCON=Cc1cc(-c2ccc(C(F)(F)F)n(C)c2=O)c(F)cc1Cl` [Compound 1-188] was tested, and the “Herbicidal effects Ch” value was 5.
